Data published in publication PMC9059924 (RSC Advances, 2019).

Assays:
Format in all cases: cell-based, rat
[1] = test system: primary cortical neurons (OGD model); assay: Cell viability of primary cortical neurons in oxygen glucose deprivation; settings: for Cell survival rate of primary neurons (OGD 12 h), Edaravone: positive drug 100 μM; for Neuroprotective activity of BA compounds in OGD model, in words: text SAR; for Sample in 100 μM: cytotoxic at this concentration: footnote c; for Improvement of survival rate of neuron (OGD 12 h), in words: P < 0.05 vs model
primary cortical neurons = assay: Viability of normal primary cortical neurons after administration; settings: 100 μM; for Cell survival rate of primary neurons after administration: normal neurons, control 1.00, mean ± SE
[2] = test system: primary cortical neurons (OGD model); assay: Morphology of OGD neurons under inverted microscope; settings: OGD 12 h

5-methyl-2-phenyl-1,2-dihydropyrazol-3-one [Edaravone, reference compound]
Cell survival rate of primary neurons (OGD 12 h), Edaravone ([1]; BA table, model 0.49 ± 0.094, mean ± SE): 0.54 ± 0.0069 %
Cell survival rate of primary neurons (OGD 12 h), Edaravone ([1]; BN table, model 0.41 ± 0.014, mean ± SE): 0.56 ± 0.015 %

CC1(C)C=Cc2cc(NC(=O)/C=C/c3ccco3)ccc2O1 [BA-10, (E)-N-(2,2-Dimethyl-2H-1-benzopyran-6-yl)-3-(furan-2-yl)acrylamide]
Neuroprotective activity of BA compounds in OGD model, in words ([1]; OGD 12 h): lost neuroprotective effect
Cell survival rate of primary neurons after administration (primary cortical neurons): 0.84 ± 0.026 %

CC1(C)C=Cc2cc(C(CC(=O)Nc3ccccc3)Nc3ccccc3)ccc2O1 (stereo not drawn) [BN-08, 3-(2,2-Dimethyl-2H-1-benzopyran-6-yl)-N-phenyl-3-(phenylamino)propanamide]
Cell survival rate of primary neurons after administration (primary cortical neurons): 0.99 ± 0.019%

CC1(C)C=Cc2cc(/C=C/C(=O)N3CCN(c4ccc(O)cc4)CC3)ccc2O1 [BN-07, (E)-3-(2,2-Dimethyl-2H-1-benzopyran-6-yl)-1-(4-(4-hydroxyphenyl)piperazin-1-yl)prop-2-en-1-one]
Neuroprotective effect of BN compounds on survival of OGD neurons, in words ([1]; OGD 12 h, compared with model group / edaravone): good efficacy in neurons of OGD model
Cell survival rate of primary neurons after administration (primary cortical neurons): 0.96 ± 0.0063%
Morphology of neurons induced by OGD, in words [2]: significantly improved the morphology of neurons

COc1ccc(NC(=O)/C=C/c2ccc3c(c2)C=CC(C)(C)O3)cc1 [BN-02, (E)-3-(2,2-Dimethyl-2H-1-benzopyran-6-yl)-N-(4-methoxyphenyl)acrylamide]
Cell survival rate of primary neurons after administration (primary cortical neurons): 0.93 ± 0.0080%

3-(2,2-Dimethyl-2H-1-benzopyran-6-yl)-N-(3-methoxyphenyl)-3-((3-methoxyphenyl)amino)propenamide [BN-10]
Cell survival rate of primary neurons (OGD 12 h), Sample in 1 μM ([1]; BN compounds, 1 μM, model 0.41 ± 0.014, control 1.00, mean ± SE): 0.81 ± 0.0090 %
Cell survival rate of primary neurons (OGD 12 h), Sample in 30 μM ([1]; BN compounds, 30 μM, model 0.41 ± 0.014, control 1.00, mean ± SE): 0.77 ± 0.0035 %
Sample in 100 μM: cytotoxic at this concentration ([1]; BN compounds): — ^c
Cell survival rate of primary neurons after administration (primary cortical neurons): 0.81 ± 0.058 %

CC1(C)C=Cc2cc(NC(=O)/C=C/c3cccs3)ccc2O1 [BA-11, (E)-N-(2,2-Dimethyl-2H-1-benzopyran-6-yl)-3-(thiophen-2-yl)acrylamide]
Improvement of survival rate of neuron (OGD 12 h), in words ([1]; 1 μM): significantly improve the survival rate of neuron
Neuroprotective activity of BA compounds in OGD model, in words ([1]; OGD 12 h): maintained the same biological activity
Cell survival rate of primary neurons after administration (primary cortical neurons): 0.89 ± 0.054%

COc1ccc(/C=C/C(=O)Nc2ccc3c(c2)C=CC(C)(C)O3)cc1 [BA-06, (E)-N-(2,2-Dimethyl-2H-1-benzopyran-6-yl)-3-(4-methoxyphenyl)acrylamide]
Cell survival rate of primary neurons after administration (primary cortical neurons): 0.86 ± 0.018 %

CC1(C)C=Cc2cc(NC(=O)/C=C/c3cccc4ccccc34)ccc2O1 [BA-08, (E)-N-(2,2-Dimethyl-2H-1-benzopyran-6-yl)-3-(naphthalen-1-yl)acrylamide]
Improvement of survival rate of neuron (OGD 12 h), in words ([1]; 1 μM): significantly improve the survival rate of neuron
Sample in 100 μM: cytotoxic at this concentration ([1]; BA compounds): — ^c
Cell survival rate of primary neurons after administration (primary cortical neurons): 0.73 ± 0.025 %

CC1(C)C=Cc2cc(NC(=O)/C=C/c3cccnc3)ccc2O1 [BA-09, (E)-N-(2,2-Dimethyl-2H-1-benzopyran-6-yl)-3-(pyridin-3-yl)acrylamide]
Improvement of survival rate of neuron (OGD 12 h), in words ([1]; 1 μM): significantly improve the survival rate of neuron
Sample in 100 μM: cytotoxic at this concentration ([1]; BA compounds): — ^c
Neuroprotective activity of BA compounds in OGD model, in words ([1]; OGD 12 h): maintained the same biological activity
Cell survival rate of primary neurons after administration (primary cortical neurons): 0.49 ± 0.047 %

CC1(C)C=Cc2cc(NC(=O)/C=C/c3ccccc3)ccc2O1 [BA-07, (E)-N-(2,2-Dimethyl-2H-1-benzopyran-6-yl)-3-phenylacrylamide]
Improvement of survival rate of neuron (OGD 12 h), in words ([1]; 1 μM): significantly improve the survival rate of neuron
Sample in 100 μM: cytotoxic at this concentration ([1]; BA compounds): — ^c
Cytotoxicity to normal neurons (reduced cell survival rate), in words (primary cortical neurons): cytotoxic
Cell survival rate of primary neurons after administration (primary cortical neurons): 0.78 ± 0.046 %

COc1ccc(NC(=O)CC(Nc2ccc(OC)cc2)c2ccc3c(c2)C=CC(C)(C)O3)cc1 (stereo not drawn) [BN-09, 3-(2,2-Dimethyl-2H-1-benzopyran-6-yl)-N-(4-methoxyphenyl)-3-((4-methoxyphenyl)amino)propanamide]
Sample in 100 μM: cytotoxic at this concentration ([1]; BN compounds): — ^c
Cell survival rate of primary neurons after administration (primary cortical neurons): 0.80 ± 0.047 %

CC1(C)C=Cc2cc(NC(=O)/C=C/c3ccc(O)cc3)ccc2O1 [BA-01, (E)-N-(2,2-Dimethyl-2H-1-benzopyran-6-yl)-3-(4-hydroxyphenyl)acrylamide]
Sample in 100 μM: cytotoxic at this concentration ([1]; BA compounds): — ^c
Neuroprotective activity of BA compounds in OGD model, in words ([1]; OGD 12 h): the activity was decreased or disappeared
Cytotoxicity to normal neurons (reduced cell survival rate), in words (primary cortical neurons): cytotoxic
Cell survival rate of primary neurons after administration (primary cortical neurons): 0.75 ± 0.021 %

CC1(C)C=Cc2cc(/C=C/C(=O)Nc3ccccc3)ccc2O1 [BN-01, (E)-3-(2,2-Dimethyl-2H-1-benzopyran-6-yl)-N-phenylacrylamide]
Cell survival rate of primary neurons after administration (primary cortical neurons): 0.85 ± 0.038 %

CC1(C)C=Cc2cc(NC(=O)/C=C/c3ccc(O)c(O)c3)ccc2O1 [BA-04, (E)-N-(2,2-Dimethyl-2H-1-benzopyran-6-yl)-3-(3,4-dihydroxyphenyl)acrylamide]
Sample in 100 μM: cytotoxic at this concentration ([1]; BA compounds): — ^c
Neuroprotective activity of BA compounds in OGD model, in words ([1]; OGD 12 h): the activity was decreased or disappeared
Cytotoxicity to normal neurons (reduced cell survival rate), in words (primary cortical neurons): cytotoxic
Cell survival rate of primary neurons after administration (primary cortical neurons): 0.56 ± 0.014 %

COc1ccccc1NC(=O)/C=C/c1ccc2c(c1)C=CC(C)(C)O2 [BN-04, (E)-3-(2,2-Dimethyl-2H-1-benzopyran-6-yl)-N-(2-methoxyphenyl)acrylamide]
Cell survival rate of primary neurons after administration (primary cortical neurons): 0.88 ± 0.038%

COc1cccc(NC(=O)/C=C/c2ccc3c(c2)C=CC(C)(C)O3)c1 [BN-03, (E)-3-(2,2-Dimethyl-2H-1-benzopyran-6-yl)-N-(3-methoxyphenyl)acrylamide]
Cell survival rate of primary neurons after administration (primary cortical neurons): 0.89 ± 0.02%

COc1ccc(N2CCN(C(=O)/C=C/c3ccc4c(c3)C=CC(C)(C)O4)CC2)cc1 [BN-06, (E)-3-(2,2-Dimethyl-2H-1-benzopyran-6-yl)-1-(4-(4-methoxyphenyl)piperazin-1-yl)prop-2-en-1-one]
Cell survival rate of primary neurons after administration (primary cortical neurons): 0.91 ± 0.028%

CC1(C)C=Cc2cc(/C=C/C(=O)Oc3ccccc3)ccc2O1 [BN-05, (E)-3-(2,2-Dimethyl-2H-1-benzopyran-6-yl)-acrylate-phenyl ester]
Cell survival rate of primary neurons after administration (primary cortical neurons): 0.86 ± 0.023 %

COc1cc(/C=C/C(=O)Nc2ccc3c(c2)C=CC(C)(C)O3)ccc1O [BA-02, (E)-N-(2,2-Dimethyl-2H-1-benzopyran-6-yl)-3-(4-hydroxy-3-methoxyphenyl)acrylamide]
Sample in 100 μM: cytotoxic at this concentration ([1]; BA compounds): — ^c
Cytotoxicity to normal neurons (reduced cell survival rate), in words (primary cortical neurons): cytotoxic
Cell survival rate of primary neurons after administration (primary cortical neurons): 0.76 ± 0.025 %

COc1ccc(/C=C/C(=O)Nc2ccc3c(c2)C=CC(C)(C)O3)cc1O [BA-03, (E)-N-(2,2-Dimethyl-2H-1-benzopyran-6-yl)-3-(3-hydroxy-4-methoxyphenyl)acrylamide]
Improvement of survival rate of neuron (OGD 12 h), in words ([1]; 1 μM): significantly improve the survival rate of neuron
Sample in 100 μM: cytotoxic at this concentration ([1]; BA compounds): — ^c
Cytotoxicity to normal neurons (reduced cell survival rate), in words (primary cortical neurons): cytotoxic
Cell survival rate of primary neurons after administration (primary cortical neurons): 0.77 ± 0.012 %

CC1(C)C=Cc2cc(NC(=O)/C=C/c3ccc4c(c3)OCO4)ccc2O1 [BA-05, (E)-N-(2,2-Dimethyl-2H-1-benzopyran-6-yl)-3-(1,3-benzodioxole-5-yl)acrylamide]
Cell survival rate of primary neurons after administration (primary cortical neurons): 0.85 ± 0.037 %
